Source: PMC4574540, “Aspergillus niger membrane-associated proteome analysis for the identification of glucose transporters” (Biotechnology for Biofuels, 2015)

How the values were obtained:
MstG = target: T1, MstG (Aspergillus niger, UniProt A2QKT1); assay: competition of […]-glucose uptake in yeast cells; type: cell-based; conditions: read-out: % inhibition at 10 mM
T1 construct: gene An05g01290; also called pRS426H7), expressed in S. cerevisiae EBY.VW4000 hexose transporter null mutant, whole-cell uptake
T1 sequence (A2QKT1 1-542): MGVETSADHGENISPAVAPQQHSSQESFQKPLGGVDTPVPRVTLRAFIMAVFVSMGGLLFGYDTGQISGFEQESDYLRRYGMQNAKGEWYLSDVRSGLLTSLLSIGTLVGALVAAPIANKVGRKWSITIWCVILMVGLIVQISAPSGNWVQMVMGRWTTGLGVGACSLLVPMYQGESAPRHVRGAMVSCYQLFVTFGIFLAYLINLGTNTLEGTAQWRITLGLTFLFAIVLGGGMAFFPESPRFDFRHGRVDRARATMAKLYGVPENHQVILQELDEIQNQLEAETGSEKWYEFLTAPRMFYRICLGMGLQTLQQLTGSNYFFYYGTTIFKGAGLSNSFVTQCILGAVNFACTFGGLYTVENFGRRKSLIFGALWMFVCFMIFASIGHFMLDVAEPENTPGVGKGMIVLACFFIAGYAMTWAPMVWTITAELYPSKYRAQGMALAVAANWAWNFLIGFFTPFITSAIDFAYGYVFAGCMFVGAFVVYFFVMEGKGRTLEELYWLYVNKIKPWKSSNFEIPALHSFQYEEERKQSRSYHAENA

MstH = target: T2, MstH (Aspergillus niger, UniProt A5ABZ0); assay: competition of […]-glucose uptake in yeast cells; type: cell-based; conditions: read-out: % inhibition at 10 mM
T2 construct: gene An15g03940; also called pRS426H7), expressed in S. cerevisiae EBY.VW4000 hexose transporter null mutant, whole-cell uptake
T2 sequence (A5ABZ0 1-527): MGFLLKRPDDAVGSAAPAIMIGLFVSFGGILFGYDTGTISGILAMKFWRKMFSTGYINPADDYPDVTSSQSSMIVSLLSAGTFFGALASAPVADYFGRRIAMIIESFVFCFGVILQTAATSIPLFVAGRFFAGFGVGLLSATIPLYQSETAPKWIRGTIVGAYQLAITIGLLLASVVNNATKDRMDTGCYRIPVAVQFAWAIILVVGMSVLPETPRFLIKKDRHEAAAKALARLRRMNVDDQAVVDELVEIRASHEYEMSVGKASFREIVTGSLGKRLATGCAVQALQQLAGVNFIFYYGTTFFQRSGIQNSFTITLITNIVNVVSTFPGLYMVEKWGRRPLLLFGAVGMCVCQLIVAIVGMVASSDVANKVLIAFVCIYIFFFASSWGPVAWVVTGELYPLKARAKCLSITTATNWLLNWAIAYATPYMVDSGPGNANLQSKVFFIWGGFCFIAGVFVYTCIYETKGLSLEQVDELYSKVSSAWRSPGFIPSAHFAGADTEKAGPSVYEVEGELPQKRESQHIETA

| SMILES | inhibition at 10000 µM (MstG) [%] | inhibition at 10000 µM (MstH) [%] |
| --- | --- | --- |
| OCC1(O)OC[C@@H](O)[C@@H](O)[C@@H]1O (some centres unmarked) [fructose] | 29 | 50 |
| OC[C@H]1OC(O)[C@H](O)[C@@H](O)[C@H]1O (some centres unmarked) [galactose] | 39 | – |
| OC[C@H]1OC(O)[C@@H](O)[C@@H](O)[C@@H]1O (some centres unmarked) [mannose] | – | 70 |
| OC1OC[C@@H](O)[C@H](O)[C@H]1O (some centres unmarked) [xylose] | 25 | – |
